Measurements as given in the NIST ThermoML archive (doi:10.1021/je0501890).
Numbers after ± are expanded uncertainties.

Conditions: 298.15 K; 101.33 kPa; Liquid

Structure (SMILES) | mass density | viscosity
CC(Cl)(Cl)Cl [1,1,1-trichloroethane] | 1329.55 ± 1.1 kg/m3 | 0.789 ± 0.011 mPa·s
ClC(Cl)C(Cl)Cl [1,1,2,2-tetrachloroethane] | 1586.65 ± 1.6 kg/m3 | 1.431 ± 0.019 mPa·s
ClCCCl [1,2-dichloroethane] | 1245.64 ± 0.92 kg/m3 | 0.776 ± 0.011 mPa·s
CCCCCCCO [heptan-1-ol] | 818.48 ± 0.68 kg/m3 | 5.818 ± 0.079 mPa·s
ClC(Cl)=C(Cl)Cl [tetrachloroethene] | 1613.2 ± 1.6 kg/m3 | 0.839 ± 0.012 mPa·s
ClC=C(Cl)Cl [trichloroethene] | 1455.65 ± 1.3 kg/m3 | 0.536 ± 0.008 mPa·s
